The source of these data is patent US11459296B2, “Antibacterial compounds” (INFEX Therapeutics Limited, priority 2018, dated 2022).

Values after ≈ are worked out from the molar mass of the structure shown. Counter-ions that a name gives are not always drawn. Where only a bound is given, the exact number is not on record here.

The nature of the series: Cytotoxicity Assay (CellTiter-Glo). The format is cell-based. Particulars: human, Hep G2 cells (ATCC HB-8065); 24 h exposure, cell viability; read-out: HepG2 CC50. Here is the method:
Cytotoxicity was evaluated in human Hep G2 cells (ATCC HB-8065) seeded at a density of 2×10^5 cells per well and incubated for 24 h at 37° C., 5% CO2. Cells were exposed to a doubling dilution series of test article. After 24 h exposure, the viability of the cells was determined using CellTiter-Glo® (Promega, Wis., USA) according to the manufacturer's instructions. Results are reported as the concentration of test article required to reduce cell viability by 50% (CC50).
For orientation: Cellular ATP, detected with luciferase, serves as a proxy for viable cell number.
Consider `Cc1nn(C)c(C)c1-c1ccn(S(N)(=O)=O)c1C(=O)O` [Example 7, 1-Sulfamoyl-3-(1,3,5-trimethyl-1H-pyrazol-4-yl)-1H-pyrrole-2-carboxylic acid, sodium salt], for which the CC50 at 24 h was more than 256 µg/mL.

Consider `NS(=O)(=O)c1ccn(-c2ccc(C3CCNCC3)cc2)c1C(=O)O` [Example 82, 1-[4-(Piperidin-4-yl)phenyl]-3-sulfamoyl-1H-pyrrole-2-carboxylic acid, sodium salt], for which the CC50 at 24 h is more than 256 µg/mL. The same measure for `NS(=O)(=O)c1ccn(-c2ccc(F)cc2)c1C(=O)O` [Example 80, 1-(4-Fluorophenyl)-3-sulfamoyl-pyrrole-2-carboxylic acid]: more than 256 µg/mL; for `NS(=O)(=O)n1ccc(-c2ccc(-c3ccncc3)cc2)c1C(=O)O` [Example 13, 3-[4-(Pyridin-4-yl)phenyl]-1-sulfamoyl-1H-pyrrole-2-carboxylic acid]: more than 256 µg/mL; for `NS(=O)(=O)n1ccc(C2CC2)c1C(=O)O` [Example 55, 3-Cyclopropyl-1-sulfamoyl-1H-pyrrole-2-carboxylic acid]: more than 256 µg/mL. The result for `CC(=O)N1CCC(c2ccc(-c3ccn(S(N)(=O)=O)c3C(=O)O)cc2)CC1` [Example 48, 3-[4-(1-Acetylpiperidin-4-yl)phenyl]-1-sulfamoyl-1H-pyrrole-2-carboxylic acid] reads 158 µg/mL (≈ 405 µM). The result for `N#Cc1ccc(-c2ccn(S(N)(=O)=O)c2C(=O)O)cc1` [Example 15, 3-(4-Cyanophenyl)-1-sulfamoyl-1H-pyrrole-2-carboxylic acid] reads more than 256 µg/mL; that for `NS(=O)(=O)n1ccc(C2=CCNCC2)c1C(=O)O` [Example 38, 1-Sulfamoyl-3-(1,2,3,6-tetrahydropyridin-4-yl)-1H-pyrrole-2-carboxylic acid hydrochloride], more than 256 µg/mL; that for `NS(=O)(=O)c1ccn(Cc2ccccc2)c1C(=O)O` [Example 84, 1-Benzyl-3-sulfamoyl-pyrrole-2-carboxylic acid], more than 256 µg/mL.

Regarding `CCc1cn(S(N)(=O)=O)c(C(=O)O)c1-c1ccccc1` [Example 74, 4-Ethyl-3-phenyl-1-sulfamoyl-pyrrole-2-carboxylic acid], the CC50 at 24 h worked out at 237 µg/mL (≈ 805 µM).

Consider `COc1ccc(-n2ccc(S(N)(=O)=O)c2C(=O)O)cc1` [Example 83, 1-(4-Methoxyphenyl)-3-sulfamoyl-pyrrole-2-carboxylic acid], for which the CC50 at 24 h is more than 256 µg/mL.

Turning to `NS(=O)(=O)n1ccc(-c2ccccc2F)c1C(=O)O` [Example 14, 3-(2-Fluorophenyl)-1-sulfamoyl-pyrrole-2-carboxylic acid], the CC50 at 24 h is more than 256 µg/mL. For the compound `NS(=O)(=O)n1ccc(C2CCNCC2)c1C(=O)O` [Example 57, 3-(Piperidin-4-yl)-1-sulfamoyl-1H-pyrrole-2-carboxylic acid hydrochloride], the CC50 at 24 h was more than 256 µg/mL. The same measure for `Cc1cn(S(N)(=O)=O)c(C(=O)O)c1-c1ccccc1` [Example 75, 4-Methyl-3-phenyl-1-sulfamoyl-1H-pyrrole-2-carboxylic acid]: more than 256 µg/mL. Regarding `CN(C)S(=O)(=O)N1CCC(c2ccc(-c3ccn(S(N)(=O)=O)c3C(=O)O)cc2)CC1` [Example 49, 3-[4-[1-(Dimethylsulfamoyl)piperidin-4-yl]phenyl]-1-sulfamoyl-1H-pyrrole-2-carboxylic acid], the CC50 at 24 h is 66.4 µg/mL (≈ 145 µM). With `Cc1ccc(-n2ccc(S(N)(=O)=O)c2C(=O)O)cc1` [Example 81, 1-(p-Tolyl)-3-sulfamoyl-pyrrole-2-carboxylic acid], the 50% cytotoxic concentration (CC50) at 24 h was more than 256 µg/mL. The result for `CN(C)S(=O)(=O)c1ccc(-c2ccn(S(N)(=O)=O)c2C(=O)O)cc1` [Example 4, 3-[4-(Dimethylsulfamoyl)phenyl]-1-sulfamoyl-1H-pyrrole-2-carboxylic acid, sodium salt] reads more than 128 µg/mL; that for `Cc1ccccc1-c1ccn(S(N)(=O)=O)c1C(=O)O` [Example 20, 3-(o-Tolyl)-1-sulfamoyl-pyrrole-2-carboxylic acid], more than 256 µg/mL.

Usually CC50 stands for the concentration giving 50% cytotoxicity.
